Source: US20040259934A1, “Inhibiting Coronaviridae viral replication and treating Coronaviridae viral infection with nucleoside compounds” (priority 2003, published 2004)

Assays:
Human coronavirus OC43 [1] = test: Cytopathic effect (CPE) inhibition assay against a coronavirus; format: cell-based; conditions: Betacoronavirus 1, OC43 / SC1, BSC-1, 144 h
Protocol: (§1) The assays employed to measure activity against coronavirus are described below (wherein CPE=cytopathic effect; FBS=fetal bovine serum; MEM=minimal essential medium; MOI=multiplicity of infection; and NR=neutral red):
(§2) Human coronavirus OC43 was obtained from the American Type Culture Collection (ATCC, Manassas, Va., USA). This virus was originally isolated from the tracheal washings of a person with cold-like symptoms.
(§3) B-SC-1 cells propagated from adult African green kidney cells were grown in MEM supplemented with 0.1% NaHCO3 and 10% FBS. When performing antiviral assays, serum was reduced to 2% and 50 μg/mL gentamicin was added to the medium.
Each compound was diluted in MEM using a four log dilution series (i.e., 100, 10, 1.0, 0.1 μg/ml) and 100 μL added to the appropriate wells of a 96 well cell culture plate with confluent cells (see plate format below). The coronavirus was diluted in MEM 2% FBS to an MOI=0.001 in a volume of 100 μL and added immediately to plate (usually within 5 minutes of drug addition). […] The plates were then scored for virus cytopathic effect at each dilution of compound tested. The 50% effective concentration (EC50) was calculated by regression analysis using the means of the CPE ratings at each concentration of compound.

Human coronavirus OC43 [2] = test: Neutral red uptake assay against a coronavirus; format: cell-based; conditions: Betacoronavirus 1, OC43 / SC1, BSC-1
Protocol: as §1, §2, §3
After performing the CPE inhibition assay above, an additional cytopathic detection method was used, in which medium was removed from each well of a plate scored for CPE from a CPE inhibition assay, 0.034% NR was added to each well of the plate and the plate incubated for 2 hr at 37° C. in the dark. The NR solution was then removed from the wells. After rinsing and aspirating to dryness, the remaining dye was extracted for 30 min at room temperature in the dark from the cells using absolute ethanol buffered with Sörenson citrate buffer. […] Absorbances at 540 nm and 450 nm were read with a microplate reader (Bio-Tek EL 1309; Bio-Tek Instruments, Inc., Winooski, Vt.). Absorbance values were expressed as percentages of untreated controls and EC50 and IC50 values were calculated by regression analysis.

| Structure (SMILES) | EC50 (Human coronavirus OC43 [1]) [µM] | EC50 (Human coronavirus OC43 [2]) [µM] |
| --- | --- | --- |
| C[C@@]1(O)[C@H](O)[C@@H](CO)O[C@H]1n1cnc2c(N)ncnc21 [2′-C-methyladenosine] | < 100 | ≤ 10 |
| C[C@@]1(O)[C@H](O)[C@@H](CO)O[C@H]1n1ccc(N)nc1=O [2′-C-methylcytidine] | < 100 | ≤ 10 |
| C[C@@]1(O)[C@H](O)[C@@H](CO)O[C@H]1n1ccc2c(N)ncnc21 [Example 1, 4-Amino-7-(2-C-methyl-β-D-ribofuranosyl)-7H-pyrrolo[2,3-d]pyrimidine] | < 100 | ≤ 10 |
